For twelve compounds, IC50 results are on record in patent US20190292155A1, “THERAPEUTIC INHIBITORY COMPOUNDS” (LifeSci Pharmaceuticals, Inc., priority 2016, published 2019).

Read-outs that look alike come from different tables or passages of the source.

One may read the IC50 as the midpoint of a concentration-inhibition curve.

This assay concerns the target T1, human complement factor D (Homo sapiens, UniProt P00746).
T1 construct: purchased R&D Systems 1824-SE
In words: In vitro enzyme inhibition of human complement factor D (Z-Lys-SBzl/DTNB, A405). The class given is biochemical. As for the experimental part: The ability of the compounds disclosed herein to inhibit human complement factor D inhibitory activity was quantified according to the 12-step protocol provided below. • 1. Prepare assay buffer: 50 mM Tris/HCl, pH 7.5, 1 M NaCl. • 2. […] Then dilute the serial concentrations of Nafamostat Mesilate 20-fold in assay buffer. • 3. […] 0.5% DMSO was in each well finally. • 4. […] Add 10 μl diluted test compounds duplicated into the 96-well plate. […] 0.5% DMSO was in each well finally. • 6. Dilute 20 mM substrate Z-Lys-SBzl (Bachem, Cat# M-1300) to 200 μM in assay buffer with 200 μM DTNB (Sigma, Catalog# D8130). • 7. […] Add 40 μl diluted Complement Factor D in the 96-well plate. • 8. Positive control well contains Complement Factor D without test compound. Negative control well contains neither Complement Factor D nor test compound. Using assay buffer, bring the total volume of all controls to 50 al. • 9. Pre-incubate the plate for 5 min at room temperature. • 10. Add 50 μl of diluted substrate/DTNB mixture into each well. […] For kinetic reading: Immediately start measuring absorbance (A405 nm) continuously and record data every 30 sec for 60 min. • 12. Data analysis • Inhibition activity of compound was evaluated by IC50. IC50 was calculated according the dose-response curve of compound fitted using GraphPadPrism with “log(inhibitor)-response (variable slope)” equation. • % inhibition was calculated by using following equation:
[formula] • Mean(NC): The average value of the negative control wells' A405 nm values. • Mean(PC): The average value of the positive control wells' A405 nm values.

The mark [1] stands for this setting: biochemical assay, substrate Z-Lys-SBzl, read-out: CFD IC50.

T1 sequence (P00746 26-253): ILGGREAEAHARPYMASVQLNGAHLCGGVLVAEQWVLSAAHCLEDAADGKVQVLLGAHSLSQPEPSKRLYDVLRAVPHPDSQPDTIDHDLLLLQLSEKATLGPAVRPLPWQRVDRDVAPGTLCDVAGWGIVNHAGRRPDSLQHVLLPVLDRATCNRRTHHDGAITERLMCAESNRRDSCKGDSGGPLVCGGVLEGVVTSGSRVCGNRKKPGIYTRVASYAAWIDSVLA

The compound `CC(C)C(C)N(CC(=O)NCc1cccc(Cl)c1F)C(=O)Cn1nc(C(N)=O)c2ccccc21` (stereo not drawn) [Example 54, 1-(2-((2-((3-chloro-2-fluorobenzyl)amino)-2-oxoethyl)(3-methylbutan-2-yl)amino)-2-oxoethyl)-1H-indazole-3-carboxamide] gave an IC50 of 0.1 to 1 µM.
Take `NC(=O)n1nc(CC(=O)N(CC(=O)Nc2cccc(Cl)n2)C2CCOCC2)c2ccccc21` [Example 21, 3-(2-((2-((6-chloropyridin-2-yl)amino)-2-oxoethyl)(tetrahydro-2H-pyran-4-yl)amino)-2-oxoethyl)-1H-indazole-1-carboxamide]: the IC50 under setting [1] lay in the range of 1 to 10 µM.
Consider `NC(=O)c1nn(CC(=O)N(CCO)CC(=O)Nc2cccc(Cl)n2)c2ccccc12` [Example 13, 1-(2-((2-((6-chloropyridin-2-yl)amino)-2-oxoethyl)(2-hydroxyethyl)amino)-2-oxoethyl)-1H-indazole-3-carboxamide], for which, under setting [1], the half-maximal inhibitory concentration (IC50) fell in the range of 1 to 10 µM.
On the same count and under the same terms, in the case of `Cc1c(Cl)cccc1CNC(=O)CN(C(=O)Cn1nc(C(N)=O)c2ccccc21)C1CC1` [Example 134, 1-(2-((2-((3-chloro-2-methylbenzyl)amino)-2-oxoethyl)(cyclopropyl)amino)-2-oxoethyl)-1H-indazole-3-carboxamide] it was 1 to 10 µM; in that of `NC(=O)c1nc(NC(=O)N(CC(=O)NCc2cccc(Cl)c2F)C2CC2)n2ccccc12` [Example 140, 3-(3-(2-((3-chloro-2-fluorobenzyl)amino)-2-oxoethyl)-3-cyclopropylureido)imidazo[1,5-a]pyridine-1-carboxamide], 0.1 to 1 µM.
Same read-out and setting: under `NC(=O)c1nn(CC(=O)N(CC(=O)NCc2cccc(Cl)c2Cl)C2CC2)c2ccccc12` [Example 106, 1-(2-(cyclopropyl(2-((2,3-dichlorobenzyl)amino)-2-oxoethyl)amino)-2-oxoethyl)-1H-indazole-3-carboxamide] stands 0.1 to 1 µM; under `CC(CF)N(CC(=O)NCc1cccc(Cl)c1F)C(=O)Cn1nc(C(N)=O)c2ccccc21` (stereo not drawn) [Example 66, 1-(2-((2-((3-chloro-2-fluorobenzyl)amino)-2-oxoethyl)(1-fluoropropan-2-yl)amino)-2-oxoethyl)-1H-indazole-3-carboxamide], 0.1 to 1 µM; under `NC(=O)c1nn(CC(=O)N(CC(=O)NCc2cccc(N)c2F)C2CC2)c2ccccc12` [Example 118, 1-(2-((2-((3-amino-2-fluorobenzyl)amino)-2-oxoethyl)(cyclopropyl)amino)-2-oxoethyl)-1H-indazole-3-carboxamide], 1 to 10 µM.
As for `CC(N(CC(=O)NCc1cccc(Cl)c1F)C(=O)Cn1nc(C(N)=O)c2ccccc21)C(C)(C)C` (stereo not drawn) [Example 64, 1-(2-((2-((3-chloro-2-fluorobenzyl)amino)-2-oxoethyl)(3,3-dimethylbutan-2-yl)amino)-2-oxoethyl)-1H-indazole-3-carboxamide], the IC50 under setting [1] lay in the range of 0.1 to 1 µM.
Same read-out and setting: under `CN(CC(=O)Nc1cccc(Cl)n1)C(=O)Cn1nc(C(N)=O)c2ccccc21` [Example 14, 1-(2-((2-((6-chloropyridin-2-yl)amino)-2-oxoethyl)(methyl)amino)-2-oxoethyl)-1H-indazole-3-carboxamide] stands 1 to 10 µM; under `COc1cccc(CNC(=O)CN(C(=O)Cn2nc(C(N)=O)c3ccccc32)C2CC2)c1F` [Example 122, 1-(2-(cyclopropyl(2-((2-fluoro-3-methoxybenzyl)amino)-2-oxoethyl)amino)-2-oxoethyl)-1H-indazole-3-carboxamide], 1 to 10 µM; under `NC(=O)c1nn(CC(=O)N(CC(=O)NCc2cccc(Cl)c2F)C2CC2)c2cc(C(F)(F)F)ccc12` [Example 94, 1-(2-((2-((3-chloro-2-fluorobenzyl)amino)-2-oxoethyl)(cyclopropyl)amino)-2-oxoethyl)-6-(trifluoromethyl)-1H-indazole-3-carboxamide], 0.1 to 1 µM.
